In patent publication US20250134847A1, “COMBINATION THERAPIES” (QBIOTICS PTY LTD, priority 2022, published 2025):
Read-outs that look alike come from different tables or passages of the source.

What was measured:
SCC-15 tumours [1] = assay: SCC-15 tumours in BALB/c Foxn1^nu xenogeneic mouse model, intratumoural Compound 1 and external beam irradiation; format: in vivo; conditions: for Median Survival: Xenogeneic Model
Description: (§1) Subjects were ear tagged for identification.
(§2) Adequate positioning was ensured with the irradiator (Gammacel 40 Extractor) by sedating each mouse with a combination solution of Ketamine (80 mg/kg of 8 mg/mL solution, Ceva, NSW, AU) and Midazolam (4 mg/kg of 0.4 mg/mL solution, Sandoz, Hozkirchen, Germany) via intraperitoneal injection. Mice were double contained during transfer to and from the irradiator. During irradiation, mice were restrained with lead shielding to prevent exposure to sites other than the flanks where the tumours were located.
(§3) Tumour volume was recorded as above.

MC38 tumours = MC38 tumours in C57BL/6 syngeneic mouse model, intratumoural Compound 1 and external beam irradiation; format: in vivo; conditions: for Median Survival: Syngeneic Model
Description: The MC38 cell line is a murine colonic adenocarcinoma cell line derived from the C57BL/6 mouse (Kerafast, ENH204).
as §1
as §2, with “located. […] On completion of treatment, mice were warmed with a heating blanket, placed on their side, and observed until ambulant.” for “located.”
as §3

LLC tumours = assay: Lewis Lung Carcinoma (LLC) tumours in C57BL/6 mice, intratumoural Compound 1 and intraperitoneal doxorubicin; format: in vivo, mouse
Description: (§4) B16-F10-OVA (B16-F10 mouse melanoma cell line overexpressing chicken ovalbumin) were cultured in RPMI-1640 supplemented with 10% FCS (complete medium) and 3 mM HEPES. LLC (Lewis Lung Carcinoma) cells were cultured in DMEM (Gibco) supplemented with 10% FCS. Both cell lines were incubated at 37° C., 5% CO2 in a humidified incubator.
(§5) C57BL/6 mice were purchased from the Animal Resources Centre (ARC), Murdoch, Western Australia. […] All mice were housed in a specific pathogen free (SPF) facility, with 12 hours light/dark cycle and continual access to food and water.
C57BL/6 mice (6-7 weeks old) were injected subcutaneously (s.c.) on both flanks with B16-F10-OVA mouse melanoma cells (2×10^5 cells per site in 50 μl) or LLC mouse lung cancer cells (5×10^5 cells per site in 50 μl). Tumours were allowed to develop to approximately 75-100 mm^3. Mice were then treated intra-peritoneally with doxorubicin in saline (3 mg/kg; 60 μg/dose, saline for vehicle). […] Treatment with the chemotherapy agent was repeated after 7 and 14 days. […]
Volumes were recorded using digital calipers and expressed as mm^3 according to the formula A×b×b×0.5 where A=length and b=measured breadth of the tumour. Mice were also assessed for clinical signs of distress according to an approved clinical score sheet during the experiment. […]

SCC-15 tumours [2] = conditions: Xenogeneic Model
Description: (§6) Prior to inoculation of subject mice, the cancer cells were seeded to T175 tissue culture flasks (Thermo Scientific) to increase cell numbers. Once 70-80% confluent, cells were trypsinized and resuspended in RPMI-1640 media for harvesting and cell count using a haemocytometer. The cell volume was centrifuged and the pellet reconstituted in RPMI-1640 media to a volume sufficient for the number of inoculations required at 100 μL per injection with two sites per mouse subject. The cell suspension was kept on ice and transferred to the animal facility for injection into the subjects.
The BALB/c Foxn1^nu mice were obtained from the Animal Resource Centre, Western Australia. The C3H/HeNCr mice were bred at the QIMR Animal Facility.
C3H/HeNCr mice were shaved (Wahl, Illinois, USA) one day before inoculation. Whilst restrained subjects were inoculated on the hind quarter bilaterally by injecting 100 μL of the appropriate cell suspension into the subcutaneous space with a Terumo® (Tokyo, Japan) 27G×½″ needle. Subjects were ear tagged for identification. Following inoculation, mice were monitored twice weekly for tumour development and well-being and once tumours developed, the subjects were monitored daily.
(§7) A cohort of thirty BALB/c Foxn1^nu and twenty-one C3H/HeNCr mice, each with two tumours per mouse were divided into six experimental groups as set out in Table 2.
(§8) Weight was recorded for each subject prior to and post-treatment, and at the time of culling. The width and length of each tumour was measured using 150 mm digital Vernier callipers (Kinchrome, Qld, AU) and individual tumour volume (mm^3) calculated using the formula:
IP injections were performed by first sterilizing the anterior abdominal wall of the subject with an alcohol swab before the dorsal skin of the subject was scruffed and the subject inverted with head down. A 29 G needle with the bevel upwards is used to inject into the lower right abdominal quadrant. […]
Tumour volume was recorded as above. […]
Data was analysed with Microsoft Excel and Prism 7 to calculate average tumour volumes and standard deviations (SD). […]

A431 cells = conditions: for Combination Index at IC50, Irradiation: with irradiation
Description: (§9) Cells were seeded at 3000 cells/well in 100 μL of medium in flat bottom 96 well cell culture plates (Corning Incorporated, New York, USA). Cells were incubated for 24 hr to ensure plate adherence prior to treatment.
(§10) One in two dilutions were then performed down the plate leaving the last row as an untreated control.
(§11) Each cell line was treated with each agent in triplicate with data being averaged across the three trials.
(§12) For single agent experiments, wells included no treatment and ethanol treatment controls. Following treatment, cells were incubated for 4 hours prior to washing with PBS and replacement of medium.
(§13) Following incubation of treated cells for 5-7 days, cell survival was determined using a sulforhodamine B (SRB) proliferation assay. This assay quantitatively assesses the degree of protein staining as a surrogate marker for cellular growth. Cells were washed with PBS and subsequently fixed with methylated spirits (Chem Supply, South Australia) for at least five minutes. Following fixation, the methylated spirits was removed and cells again washed gently with water prior to staining with 50 μL/well of 0.4% SRB solution (Sigma Aldrich) in 1% acetic acid for sixty minutes. This solution was tipped off and cells quickly washed twice with 1% acetic acid. The assay was completed with administration of 100 μL/well of 10 mM Tris base (unbuffered, pH >9, Invitrogen). Absorbance was measured on an enzyme-linked immunosorbent assay (ELISA) reader (VERSA max microplate reader, Molecular Devices, California, USA) at 564 nm and a five second agitation. Cell survival was graphed as a percentage of control well absorbance against dose.
(§14) Analysis was performed using the software program Combusyn.
(§15) As for the single agent experimentation, the cell lines were maintained in culture before their eventual transfer to 96-well plates. […] Cell survival was determined relative to no-treatment controls after 7 days of incubation using SRB assays.

SCC-15 cells = conditions: for Combination Index at IC50, Irradiation: with irradiation; for relationship by Chou-Talalay combination index method: Compound 1 with irradiation
Description: as §9, §10, §11, §12, §13, §14, §15

UV-13-1 tumours = conditions: for Median Survival: Syngeneic Model
Description: as §6
C3H/HeNCr mice were shaved (Wahl, Illinois, USA) one day before inoculation. Whilst restrained subjects were inoculated on the hind quarter bilaterally by injecting 100 μL of the appropriate cell suspension into the subcutaneous space with a Terumo® (Tokyo, Japan) 27G×½″ needle. […] Following inoculation, mice were monitored twice weekly for tumour development and well-being and once tumours developed, the subjects were monitored daily.
as §7, §8
IP injections were performed by first sterilizing the anterior abdominal wall of the subject with an alcohol swab before the dorsal skin of the subject was scruffed and the subject inverted with head down. A 29 G needle with the bevel upwards is used to inject into the lower right abdominal quadrant.
On reaching a volume of 70-100 mm^3, tumours of the test subjects were injected IT with 50 μL of either 5 μg or 10 μg of Compound 1 or for control subjects 50 μL of 40% propylene glycol (PG).
The subjects were euthanized by CO2 inhalation when total tumour burden reached 1000 mm^3 per mouse, if ill, and on completion of the experiment.
Data was analysed with Microsoft Excel and Prism 7 to calculate average tumour volumes and standard deviations (SD). Individual and averaged tumour volumes and Kaplan-Meier survival curves were graphed relative to time of treatment.
C3H/HeNCr mouse model inoculated with UV-13-1 tumours is a syngeneic model where the mouse is immunocompetent and the influence of the immune system on treatment may be assessed. These mice were not culled at 60 days but were periodically (weekly) monitored up to 200 days for recurrence.

B16-F10-OVA tumours = assay: B16-F10-OVA mouse melanoma tumours in C57BL/6 mice, intratumoural Compound 1 and intraperitoneal doxorubicin
Description: as §4, §5
C57BL/6 mice (6-7 weeks old) were injected subcutaneously (s.c.) on both flanks with B16-F10-OVA mouse melanoma cells (2×10^5 cells per site in 50 μl) or LLC mouse lung cancer cells (5×10^5 cells per site in 50 μl). Tumours were allowed to develop to approximately 75-100 mm^3. Mice were then treated intra-peritoneally with doxorubicin in saline (3 mg/kg; 60 μg/dose, saline for vehicle). […] Treatment with the chemotherapy agent was repeated after 7 and 14 days. For the B16-F10-OVA model, 5 mice per group (10 tumours) were used in duplicate experiments (total of 10 mice per group, 20 tumours in total from both experiments). For the LLC tumour model, 5 mice per group were used in a single experiment (10 tumours).
Volumes were recorded using digital calipers and expressed as mm^3 according to the formula A×b×b×0.5 where A=length and b=measured breadth of the tumour. Mice were also assessed for clinical signs of distress according to an approved clinical score sheet during the experiment. The experiment ceased when an unacceptable clinical score (>6) was reached, or the cumulative tumour burden of the mouse exceeded 1,000 mm^3. […] Mice were humanely euthanized by CO2 asphyxiation at the end of the experiment.

[3] = 5 Gy irradiation + IT 7.5 μg Compound 1
[4] = 10 Gy irradiation + IT 7.5 μg Compound 1
[5] = syngeneic model, 5 Gy irradiation + 7.5 μg IT Compound 1
[6] = syngeneic model, 10 Gy irradiation + 7.5 μg IT Compound 1
[7] = 5 μg or 10 μg Compound 1, p<0.0001
[8] = IP N/Saline + IT 5 μg Compound 1
[9] = IP N/Saline + IT 10 μg Compound 1
[10] = IP cisplatin 2.5 mg/kg + IT 40% PG
[11] = intraperitoneal doxorubicin 3 mg/kg + intralesional 40% PG/30 mM acetate

SMILES: C/C=C(\C)C(=O)O[C@@H]1[C@@H](C)[C@@]2(O)[C@H]([C@@H]3C(C)(C)[C@]13OC(=O)[C@@H](C)CC)[C@@H]1O[C@]1(CO)[C@@H](O)[C@]1(O)C(=O)C(C)=C[C@H]12 [Compound 1, 12-tigloyl-13-(2-methylbutanoyl)-6,7-epoxy-4,5,9,12,13,20-hexahydroxy-1-tiglien-3-one]
- Median Survival (SCC-15 tumours [1]; 0 Gy + IT 7.5 μg Compound 1): 22 days
- Median Survival (SCC-15 tumours [1]; [3]): 32 days
- Median Survival (SCC-15 tumours [1]; [4]): 166 days
- cure rate (SCC-15 tumours [1]; xenogeneic model, 7.5 μg IT Compound 1 alone): 70%
- survival rate at 200 days (SCC-15 tumours [1]; xenogeneic model, 5 Gy irradiation + 7.5 μg IT Compound 1): 20%
- survival rate at 200 days (SCC-15 tumours [1]; xenogeneic model, 10 Gy irradiation + 7.5 μg IT Compound 1): 50%
- cure rate (proportion of tumours responding completely) (SCC-15 tumours [1]; xenogeneic model, Compound 1 and 5 Gy irradiation): 80%
- cure rate (proportion of tumours responding completely) (SCC-15 tumours [1]; xenogeneic model, Compound 1 and 10 Gy irradiation): 70%
- tumour size response compared to other combinations (SCC-15 tumours [1]; xenogeneic model, Compound 1 combined with irradiation): significant and durable reduction in tumour size
- duration of treatment response (SCC-15 tumours [1]; xenogeneic model, Compound 1 monotherapy): 11 days
- duration of treatment response (SCC-15 tumours [1]; xenogeneic model, Compound 1 with 5 Gy irradiation): 51.5 days
- duration of treatment response (SCC-15 tumours [1]; xenogeneic model, Compound 1 with 10 Gy irradiation): 111 days
- improvement of duration of treatment response over monotherapy (SCC-15 tumours [1]; xenogeneic model, Compound 1 with irradiation, either 5 Gy or 10 Gy): at least 4.6 ×
- Median Survival (MC38 tumours; 0 Gy + IT 7.5 μg Compound 1): 13 days
- Median Survival (MC38 tumours; [3]): 31 days
- Median Survival (MC38 tumours; [4]): 47 days
- cure rate (MC38 tumours; syngeneic model, 7.5 μg IT Compound 1 alone): 70%
- survival at experiment end (MC38 tumours; [5]): 20%
- tumours that remained cured at 200 days following treatment (MC38 tumours; [5]): two
- survival at experiment end (MC38 tumours; [6]): 20%
- tumours that remained cured at 200 days following treatment (MC38 tumours; [6]): two
- cure rate (proportion of tumours responding completely) (MC38 tumours; syngeneic model, Compound 1 and 5 Gy irradiation): 100%
- cure rate (proportion of tumours responding completely) (MC38 tumours; syngeneic model, Compound 1 and 10 Gy irradiation): 100%
- duration of treatment response (MC38 tumours; syngeneic model, Compound 1 monotherapy): 6.2 days
- duration of treatment response (MC38 tumours; syngeneic model, Compound 1 with 5 Gy irradiation): 64.6 days
- duration of treatment response (MC38 tumours; syngeneic model, Compound 1 with 10 Gy irradiation): 65.9 days
- improvement of duration of treatment response over monotherapy (MC38 tumours; syngeneic model, Compound 1 with irradiation, either 5 Gy or 10 Gy): ≥ 8.7 ×
- tumour response (individual and average tumour volumes) (MC38 tumours; syngeneic model, combinations of Compound 1 and irradiation): considerably improved tumour response
- tumour growth and overall survival compared to vehicle alone (LLC tumours; [7]): slowed tumour growth and prolonged overall survival
- Median Survival (SCC-15 tumours [2]; [8]): 11 days
- Median Survival (SCC-15 tumours [2]; [9]): 13 days
- Combination Index at IC50, Irradiation (A431 cells; Compound 1 concentration 10 μM): 0.33
- Combination Index at IC50, Irradiation (A431 cells; Compound 1 concentration 50 μM): 0.41
- Combination Index at IC50, Irradiation (A431 cells; Compound 1 concentration 100 μM): 0.12
- Combination Index at IC50, Irradiation (A431 cells; Compound 1 concentration 200 μM): 0.08
- cell death compared to Compound 1 alone (A431 cells; Compound 1 with any concentration of irradiation): significant increase in cell death
- relationship by Chou-Talalay combination index method (A431 cells; Compound 1 with irradiation): synergistic
- Combination Index at IC50, Irradiation (SCC-15 cells; Compound 1 concentration 2 μM): 0.15
- Combination Index at IC50, Irradiation (SCC-15 cells; Compound 1 concentration 20 μM): 2.1
- Combination Index at IC50, Irradiation (SCC-15 cells; Compound 1 concentration 40 μM): 1.75
- Combination Index at IC50, Irradiation (SCC-15 cells; Compound 1 concentration 60 μM): 1.34
- relationship by Chou-Talalay combination index method (SCC-15 cells; at low concentrations): synergistic
- relationship by Chou-Talalay combination index method (SCC-15 cells; some combination indices (CI >1)): consistent with antagonism
- cell survival (SCC-15 cells; exposure to Compound 1 and irradiation): pronounced fall in cell survival
- Median Survival (UV-13-1 tumours; [8]): 16.5 days
- Median Survival (UV-13-1 tumours; [9]): 23.5 days
- efficacy versus IP cisplatin alone (UV-13-1 tumours; syngeneic model, 5 μg and 10 μg Compound 1 IT with saline): more efficacious than IP cisplatin alone
- tumour growth and overall survival compared to vehicle alone (B16-F10-OVA tumours; [7]): slowed tumour growth and prolonged overall survival
- tumours completely ablated (B16-F10-OVA tumours; saline/10 μg Compound 1 group): 4/20

SMILES: N.N.[Cl][Pt][Cl] [cisplatin, reference compound]
- Median Survival (SCC-15 tumours [2]; [10]): 11 days
- Median Survival (UV-13-1 tumours; [10]): 12 days

SMILES: COc1cccc2c1C(=O)c1c(O)c3c(c(O)c1C2=O)C[C@@](O)(C(=O)CO)C[C@@H]3O[C@H]1C[C@H](N)[C@H](O)[C@H](C)O1 [doxorubicin, reference compound]
- effect on tumour growth and survival (LLC tumours; [11]): minor effect on slowing tumour growth and prolonging survival
- effect on tumour growth (B16-F10-OVA tumours; [11]): no effect on tumour growth
